In ChEMBL document CHEMBL1201862, “PubChem BioAssay data set” (2004):
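Tested at 5 concentrations; 48 h exposure; 96-well plates; endpoints linearly interpolated, else capped at highest concentration. At the GI50, growth is halved.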 The source made the active and inactive calls. Rule as the data show it: active = GI50 up to about 1.1 µM and inactive = higher.

Columns and labels:
Test in all cases: DTP human tumour cell line panel, 48 h
[1] = test system: DLD-1
[2] = test system: DMS-114
[3] = test system: DMS-273
[4] = test system: HOP-18
[5] = test system: LXFL 529
[6] = test system: M19-MEL
[7] = test system: XF498
[8] = test system: RXF 631
[9] = test system: SNB-78

Row | Structure (SMILES) | GI50 [1] | GI50 [2] | GI50 [3] | GI50 [4] | GI50 [5] | GI50 [6] | GI50 [7] | GI50 [8] | GI50 [9]
1 | O=S(=O)(O)c1cc(O)c2c(O)c(/N=N/c3ccc(/C=C/c4ccc(/N=N/c5c(S(=O)(=O)O)cc6cc(S(=O)(=O)O)cc(O)c6c5O)cc4S(=O)(=O)O)c(S(=O)(=O)O)c3)c(S(=O)(=O)O)cc2c1 | > 100 µM (inactive) | 56.6 µM (inactive) | > 100 µM (inactive) | > 100 µM (inactive) | > 100 µM (inactive) | > 100 µM (inactive) | > 100 µM (inactive) |  | 
2 | Cc1ccc(/C=N/NS(=O)(=O)c2ccccc2)c(C)c1 | > 100 µM (inactive) | > 100 µM (inactive) | > 100 µM (inactive) | > 100 µM (inactive) | > 100 µM (inactive) | > 100 µM (inactive) | > 100 µM (inactive) | > 100 µM (inactive) | > 100 µM (inactive)
3 | COc1ccc(N2C(=O)C3c4[nH]c5ccccc5c4C4CCCCCCC4C3C2=O)cc1 (stereo unspecified) | 11.2 µM (inactive) | 8.71 µM (inactive) | 5.35 µM (inactive) | 1.57 µM (inactive) | 6.08 µM (inactive) | 23.3 µM (inactive) | 10.4 µM (inactive) |  | 27.8 µM (inactive)
4 | COC(=O)c1c[nH]cc1CCCCc1c[nH]cc1C(=O)OC |  |  | > 100 µM (inactive) | > 100 µM (inactive) |  | > 100 µM (inactive) | 50 µM (inactive) | > 100 µM (inactive) | > 100 µM (inactive)
5 | CC(=O)OCC1OC(N2C(=O)C(=O)c3cc(C)ccc32)C(OC(C)=O)C(OC(C)=O)C1OC(C)=O (stereo unspecified) | 56 µM (inactive) | > 100 µM (inactive) | > 100 µM (inactive) | > 100 µM (inactive) | > 100 µM (inactive) | 50.7 µM (inactive) |  |  | > 100 µM (inactive)
6 | CC1=C2C(=O)O[C@@H](c3ccoc3)[C@]2(C)CCC1 [FRAXINELLONE] | > 100 µM (inactive) | > 100 µM (inactive) |  | > 100 µM (inactive) | > 100 µM (inactive) | > 100 µM (inactive) | > 100 µM (inactive) |  | > 100 µM (inactive)
7 | CC(C)(O)[C@@H]1CC[C@@]2(C)CCC[C@H](O)[C@H]2C1 | > 100 µM (inactive) | > 100 µM (inactive) | > 100 µM (inactive) | > 100 µM (inactive) | > 100 µM (inactive) | > 100 µM (inactive) | > 100 µM (inactive) | > 100 µM (inactive) | 
8 | Cc1ccc(NC(=O)CCc2nnc3s/c(=C\C=C\c4ccccc4)c(=O)n23)cc1 | > 100 µM (inactive) | > 100 µM (inactive) | > 100 µM (inactive) | 90.2 µM (inactive) | 60.7 µM (inactive) | 67.5 µM (inactive) | > 100 µM (inactive) | > 82.4 µM (inactive) | > 71 µM (inactive)
9 | CC12c3ccccc3C(OC=O)(c3ccccc31)C1(C)c3ccccc3C2(OC=O)c2ccccc21 | > 100 µM (inactive) | > 100 µM (inactive) | 75.7 µM (inactive) | > 100 µM (inactive) | > 100 µM (inactive) | > 100 µM (inactive) |  | > 100 µM (inactive) | > 100 µM (inactive)
10 | COc1cc(C2c3cc4c(cc3[C@@H](Nc3ccc(F)cc3)C3COC(=O)[C@H]23)OCO4)cc(OC)c1O (stereo partly specified) | 3.79 µM (inactive) | 2.64 µM (inactive) | 0.891 µM (active) | 10.6 µM (inactive) | 6.67 µM (inactive) | 4.21 µM (inactive) | 2.95 µM (inactive) |  | 8.65 µM (inactive)
11 | O=C(O)CCSC(=O)Nc1cccc(F)c1 | > 10 µM (inactive) | 66.5 µM (inactive) | > 100 µM (inactive) |  | > 100 µM (inactive) |  |  |  | > 100 µM (inactive)
12 | CC1CN(c2ccc(Cl)cc2)CC(C)(C)OC(=O)O1 (stereo unspecified) | > 100 µM (inactive) | > 100 µM (inactive) | > 100 µM (inactive) |  | > 100 µM (inactive) | > 100 µM (inactive) | > 100 µM (inactive) | > 100 µM (inactive) | > 100 µM (inactive)
13 | Cc1ccc(C(=O)OCC(C)C)cc1/N=N/N(C)C | 45.5 µM (inactive) |  | 45.5 µM (inactive) |  | > 100 µM (inactive) | 44 µM (inactive) |  |  | 64.9 µM (inactive)
14 | CCOC(=O)C(Cc1ccc([N+](=O)[O-])cc1)NC(=O)CC1c2ccccc2-c2ccccc21 (stereo unspecified) | > 100 µM (inactive) | 37.6 µM (inactive) | 63.5 µM (inactive) | > 100 µM (inactive) | > 100 µM (inactive) | 18.9 µM (inactive) | 20.8 µM (inactive) |  | 23.8 µM (inactive)
15 | CCOC(=O)CCC1(C(=O)OC)CCCC1=O (stereo unspecified) | > 100 µM (inactive) | > 100 µM (inactive) | > 100 µM (inactive) | 62.2 µM (inactive) | > 100 µM (inactive) | > 100 µM (inactive) | > 100 µM (inactive) |  | > 100 µM (inactive)
16 | COC(=O)C1CC/C(=N\c2cccc(C(F)(F)F)c2)N1 (stereo unspecified) | > 100 µM (inactive) | > 100 µM (inactive) | > 100 µM (inactive) | > 100 µM (inactive) | > 100 µM (inactive) |  | > 100 µM (inactive) | > 100 µM (inactive) | > 100 µM (inactive)
17 | CCOC(=O)/C(=C/c1ccc(C(F)(F)F)cc1)N(CC)CC | 54.1 µM (inactive) | 30.8 µM (inactive) |  | 12.5 µM (inactive) | 51.6 µM (inactive) |  | 58.1 µM (inactive) | > 100 µM (inactive) | 81.8 µM (inactive)
18 | Cc1cc(C)nc(NS(=O)(=O)c2ccc(NC(=O)c3cccc4c(Nc5ccc(S(=O)(=O)Nc6nc(C)cc(C)n6)cc5)c5ccc(Cl)cc5nc34)cc2)n1 | 33.7 µM (inactive) | 25.1 µM (inactive) | 77.6 µM (inactive) | > 100 µM (inactive) | 33 µM (inactive) | 37.8 µM (inactive) | 23.1 µM (inactive) |  | 39.4 µM (inactive)
19 | Sc1nnc(C(c2ccccc2)c2ccccc2)[nH]1 | > 100 µM (inactive) | > 100 µM (inactive) | > 100 µM (inactive) |  |  | > 100 µM (inactive) | > 100 µM (inactive) | > 100 µM (inactive) | 
20 | NC(=O)/C=C/c1c[nH]c2nccnc12 | 2.13 µM (inactive) | 2.22 µM (inactive) | 3.52 µM (inactive) | 0.228 µM (active) | 0.103 µM (active) | 3.27 µM (inactive) |  |  | 
21 | CCOC(=O)C1N(S(=O)(=O)c2ccc(C)cc2)CCC12C(c1ccc(OC)cc1)NC1CCCCC12 (stereo unspecified) | > 100 µM (inactive) | > 100 µM (inactive) | > 100 µM (inactive) |  | > 100 µM (inactive) | > 100 µM (inactive) |  | 97.1 µM (inactive) | > 100 µM (inactive)
22 | OC1c2ccccc2C2(O)C1C(c1ccccc1)C(c1ccccc1)C2(O)c1ccccc1 (stereo unspecified) |  | 13.6 µM (inactive) | 7.48 µM (inactive) | 14.9 µM (inactive) | 9.82 µM (inactive) | 15.1 µM (inactive) |  |  | 
23 | c1ccc(C2Nc3ccccc3C3OCCCC23)cc1 (stereo unspecified) | 18.9 µM (inactive) | 21.1 µM (inactive) | 28.2 µM (inactive) |  | 7.78 µM (inactive) | 42.6 µM (inactive) | 56.5 µM (inactive) | 35.7 µM (inactive) | 23.9 µM (inactive)
24 | CCC(C)NC1=C(NC(C)=O)C(=O)c2ccccc2C1=O (stereo unspecified) | 27.4 µM (inactive) | 28.4 µM (inactive) | 27.6 µM (inactive) | > 75 µM (inactive) | 54.8 µM (inactive) | 48.3 µM (inactive) | > 75 µM (inactive) |  | > 75 µM (inactive)
25 | Cc1cc(C)cc(NC(N)=S)c1 | > 100 µM (inactive) | 45.3 µM (inactive) | > 100 µM (inactive) |  | > 100 µM (inactive) | > 100 µM (inactive) | 46.5 µM (inactive) | > 100 µM (inactive) | > 100 µM (inactive)
26 | Cc1c2c(c(C)c3c1[nH]c1ccccc13)CN(C)CC2 | 34.4 µM (inactive) | 15.1 µM (inactive) | 16.7 µM (inactive) | 6.21 µM (inactive) | 14.9 µM (inactive) | 16.6 µM (inactive) |  | 22.8 µM (inactive) | 21.9 µM (inactive)
27 | O=C(O)C1Cc2[nH]cnc2CN1 (stereo unspecified) | > 100 µM (inactive) | > 100 µM (inactive) | > 100 µM (inactive) | > 100 µM (inactive) | > 100 µM (inactive) | > 100 µM (inactive) |  | > 100 µM (inactive) | > 100 µM (inactive)
28 | O=C(Cn1ccnc1[N+](=O)[O-])N(CCO)CCO | > 1250 µM (inactive) | > 1250 µM (inactive) | > 1250 µM (inactive) | > 1250 µM (inactive) |  | > 1250 µM (inactive) | > 58.1 µM (inactive) |  | > 1250 µM (inactive)
29 | COc1cc(CC(C)N)ccc1O (stereo unspecified) | > 100 µM (inactive) | > 100 µM (inactive) | > 100 µM (inactive) | > 100 µM (inactive) | > 100 µM (inactive) |  | > 100 µM (inactive) | > 100 µM (inactive) | > 100 µM (inactive)
30 | O=C1C2C3CCC(C2C(=O)N1CO)C1C2C(=O)N(CO)C(=O)C2C31 (stereo unspecified) | 45.4 µM (inactive) | 25.6 µM (inactive) | 36.1 µM (inactive) | 13.7 µM (inactive) | 55.3 µM (inactive) | 1 µM (active) | > 100 µM (inactive) |  | > 100 µM (inactive)
